Consider 14 molecules from ChEMBL document CHEMBL1909046, “DrugMatrix in vitro pharmacology data”.

The target of data set [1] is Protein phosphatase 3 catalytic subunit alpha (Homo sapiens, UniProt Q08209). On the set-up: species or system Escherichia coli.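 Further: inhibition of calcineurin (PP2B) enzyme activity, measured with DiFMUP as the substrate; in other assays of this panel Not Active means under 50% inhibition at 10 µM.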
Data set [2] addresses Glycine receptor (Rattus norvegicus, UniProt P22771+P24524+P07727+P20781). The format is cell membranes, Wistar, Spinal cord, Membrane.
A short description of data set [3]: DRUGMATRIX: GABAA, Chloride Channel, TBOB radioligand binding (ligand: [3H] TBOB). The format is cell membranes, Rattus norvegicus, Wistar, Cerebral cortex, Membrane. The note with it: Not Active = under 50% inhibition at 10 µM.
Data set [4] deals with Cytochrome P450 2E1 (Homo sapiens, UniProt P05181). The note with it: bti-tn-5b1-4.
Cytochrome P450 2E1, sequence (P05181 whole entry): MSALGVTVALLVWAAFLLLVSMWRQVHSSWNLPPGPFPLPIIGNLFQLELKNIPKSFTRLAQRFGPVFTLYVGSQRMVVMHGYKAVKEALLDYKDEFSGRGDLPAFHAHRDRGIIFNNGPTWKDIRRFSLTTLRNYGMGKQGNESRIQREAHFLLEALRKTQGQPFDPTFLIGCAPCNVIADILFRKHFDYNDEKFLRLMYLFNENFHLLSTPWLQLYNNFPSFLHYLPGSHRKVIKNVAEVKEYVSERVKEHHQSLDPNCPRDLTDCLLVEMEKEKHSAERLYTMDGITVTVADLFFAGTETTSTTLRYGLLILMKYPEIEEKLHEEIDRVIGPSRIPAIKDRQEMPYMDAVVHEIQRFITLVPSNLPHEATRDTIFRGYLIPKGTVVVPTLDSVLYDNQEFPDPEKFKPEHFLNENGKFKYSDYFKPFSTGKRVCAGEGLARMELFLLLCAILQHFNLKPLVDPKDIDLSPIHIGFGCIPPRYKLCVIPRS
Data set [5] addresses Mu-type opioid receptor (Homo sapiens, UniProt P35372). In words: DRUGMATRIX: Opiate mu (OP3, MOP) radioligand binding (ligand: [3H] Diprenorphine). The format is cell membranes, CHO-K1, Membrane. The note with it: cho-k1; Not Active = under 50% inhibition at 10 µM.
The target of data set [6] is T1, Cytochrome P450 2A6 (Homo sapiens, UniProt P11509). Further: in other assays of this panel Not Active means under 50% inhibition at 10 µM.
T1 sequence (P11509 whole entry): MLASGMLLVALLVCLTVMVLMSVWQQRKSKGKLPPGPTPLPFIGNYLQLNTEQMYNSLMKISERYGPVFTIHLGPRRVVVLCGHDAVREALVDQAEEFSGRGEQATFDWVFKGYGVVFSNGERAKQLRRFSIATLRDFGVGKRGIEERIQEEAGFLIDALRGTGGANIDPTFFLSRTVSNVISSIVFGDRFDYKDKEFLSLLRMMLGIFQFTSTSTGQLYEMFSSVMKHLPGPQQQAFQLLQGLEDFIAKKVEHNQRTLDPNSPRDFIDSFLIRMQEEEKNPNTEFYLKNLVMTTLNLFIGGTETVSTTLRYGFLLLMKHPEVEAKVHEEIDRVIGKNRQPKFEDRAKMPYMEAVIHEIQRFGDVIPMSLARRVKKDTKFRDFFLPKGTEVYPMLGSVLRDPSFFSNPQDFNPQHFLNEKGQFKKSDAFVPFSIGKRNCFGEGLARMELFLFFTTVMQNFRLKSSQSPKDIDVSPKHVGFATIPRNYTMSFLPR
As to conditions: bti-tn-5b1-4.

Data set [7] can be described thus: DRUGMATRIX: Potassium Channel [KATP] radioligand binding (ligand: [3H] Glyburide). The format is cell membranes, Membrane. The note with it: hit-t15; Not Active = under 50% inhibition at 10 µM.
Data set [8] deals with T2, Alpha-2C adrenergic receptor (Homo sapiens, UniProt P18825).
T2 sequence (P18825 whole entry): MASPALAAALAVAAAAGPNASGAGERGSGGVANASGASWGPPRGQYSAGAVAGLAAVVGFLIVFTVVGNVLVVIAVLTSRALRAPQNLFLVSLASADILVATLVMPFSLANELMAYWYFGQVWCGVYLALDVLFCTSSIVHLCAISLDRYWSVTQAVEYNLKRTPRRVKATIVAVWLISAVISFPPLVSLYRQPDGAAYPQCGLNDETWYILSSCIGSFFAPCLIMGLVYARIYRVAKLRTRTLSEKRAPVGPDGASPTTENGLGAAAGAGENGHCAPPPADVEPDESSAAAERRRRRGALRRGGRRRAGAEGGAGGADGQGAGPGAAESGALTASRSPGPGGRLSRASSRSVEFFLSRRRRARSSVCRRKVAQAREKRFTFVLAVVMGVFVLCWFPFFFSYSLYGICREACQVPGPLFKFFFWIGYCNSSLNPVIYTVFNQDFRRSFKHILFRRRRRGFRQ
In words: DRUGMATRIX: Adrenergic Alpha-2C radioligand binding (ligand: [3H] MK-912). The format is cell membranes, Sf9, Membrane.

Each structure is given as a SMILES string. *1 amine or outer side, *2 acyl side, *3 side chain or, on linkers, in order; H or OH if unused. Where a SMILES comes first, the peptide text is derived from it. Bridges are numbered along the chain shown (N, C = ends). Roman numbers before positions name the chains, in order. [ ]: non-standard residue; d: D form. Actinocin(1to9) = Cc1c2oc3c(C)ccc(C(=O)[*:2])c3nc-2c(C(=O)[*:1])c(N)c1=O; NMeV = CN[C@H](C(=O)O)C(C)C; Sar = CNCC(=O)O

Mu-type opioid receptor, sequence (P35372 whole entry): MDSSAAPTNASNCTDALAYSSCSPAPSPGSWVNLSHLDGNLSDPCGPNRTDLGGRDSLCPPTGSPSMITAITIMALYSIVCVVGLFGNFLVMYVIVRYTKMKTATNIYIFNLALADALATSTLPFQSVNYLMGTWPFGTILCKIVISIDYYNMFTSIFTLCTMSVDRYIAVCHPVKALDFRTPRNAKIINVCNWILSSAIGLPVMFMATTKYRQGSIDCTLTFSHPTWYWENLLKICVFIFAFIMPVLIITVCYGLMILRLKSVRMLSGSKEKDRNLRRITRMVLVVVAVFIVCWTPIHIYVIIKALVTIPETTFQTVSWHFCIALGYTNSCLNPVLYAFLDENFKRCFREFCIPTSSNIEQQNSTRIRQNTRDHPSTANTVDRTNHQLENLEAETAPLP

A word on the IC50: it is the concentration at which inhibition is half-maximal. In general, Ki refers to the equilibrium dissociation constant of an inhibitor or competing ligand from its target. As for `Cc1cc(C(C#N)c2ccc(Cl)cc2)c(Cl)cc1NC(=O)c1cc(I)cc(I)c1O` (centres undefined) [CLOSANTEL], the concentration for half-maximal inhibition (IC50) entry in data set [1], in data set [2], in data set [3], in data set [4], in data set [5] and in data set [6] was “Not Active” each time. The IC50 result is “Not Active” in data set [7] and 7.1 µM in data set [8] (read-out: IC50). For the same molecule, the Ki result was “Not Active” in data set [3]; “Not Active” in data set [4]; “Not Active” in data set [6]; “Not Active” in data set [7]; 1 µM in data set [8] (read-out: Ki).

`CNNCc1ccc(C(=O)NC(C)C)cc1` [PROCARBAZINE]: the IC50 result in data set [1], in data set [2], in data set [3], in data set [4], in data set [5] and in data set [6] was “Not Active” each time. In addition, the 50% inhibitory concentration (IC50) entry in data set [7] and in data set [8] (sf9) was “Not Active” in each case. Besides, the Ki entry in data set [3], in data set [4], in data set [6] and in data set [7] was “Not Active” throughout.

Turning to `CNCCc1ccccn1` [BETAHISTINE], the IC50 entry in data set [1], in data set [2], in data set [3], in data set [4], in data set [5] and in data set [6] was “Not Active” each time. Moreover, the IC50 entry in data set [7] and in data set [8] (sf9) was “Not Active” in each case. Moreover, the Ki result in data set [3], in data set [4], in data set [6] and in data set [7] was “Not Active” throughout.

For the molecule `OC(Cn1cncn1)(Cn1cncn1)c1ccc(F)cc1F` [FLUCONAZOLE], the IC50 entry in data set [1], in data set [2], in data set [3], in data set [4], in data set [5] and in data set [6] was “Not Active” in each case. The IC50 entry in data set [7] and in data set [8] (sf9) was “Not Active” throughout. Further, the Ki result in data set [3], in data set [4], in data set [6] and in data set [7] was “Not Active” throughout.

Turning to `Cc1c2oc3c(C)ccc(C(=O)N[C@@H]4C(=O)N[C@H](C(C)C)C(=O)N5CCC[C@H]5C(=O)N(C)CC(=O)N(C)[C@@H](C(C)C)C(=O)O[C@@H]4C)c3nc-2c(C(=O)N[C@@H]2C(=O)N[C@H](C(C)C)C(=O)N3CCC[C@H]3C(=O)N(C)CC(=O)N(C)[C@@H](C(C)C)C(=O)O[C@@H]2C)c(N)c1=O` [DACTINOMYCIN] (I: T[dV]P[Sar][NMeV] / II: T[dV]P[Sar][NMeV]; ester I:1-I:C, II:1-II:C; linker I:N-II:N via Actinocin(1to9)), the half-maximal inhibitory concentration (IC50) entry in data set [1], in data set [2], in data set [3], in data set [4], in data set [5] and in data set [6] was “Not Active” throughout. Further, the IC50 entry in data set [7] and in data set [8] (sf9) was “Not Active” in each case. Further, the inhibition constant Ki result in data set [3], in data set [4], in data set [6] and in data set [7] was “Not Active” throughout.

For the molecule `Nc1nc(N)nc(-c2cc(Cl)ccc2Cl)n1.O=C(O)/C=C\C(=O)O` [IRSOGLADINE MALEATE], the half-inhibitory concentration (IC50) entry in data set [1], in data set [2], in data set [3], in data set [4], in data set [5] and in data set [6] was “Not Active” in each case. Further, the IC50 result in data set [7] and in data set [8] (sf9) was “Not Active” in each case. For the same molecule, the Ki entry in data set [3], in data set [4], in data set [6] and in data set [7] was “Not Active” in each case.

On to `Nc1ncn([C@@H]2O[C@H](CO)[C@@H](O)[C@H]2O)c(=O)n1` [AZACITIDINE], for which the IC50 result in data set [1], in data set [2], in data set [3], in data set [4], in data set [5] and in data set [6] was “Not Active” throughout. For the same molecule, the IC50 entry in data set [7] and in data set [8] (sf9) was “Not Active” each time. Besides, the inhibition constant Ki result in data set [3], in data set [4], in data set [6] and in data set [7] was “Not Active” in each case.

In the case of `CC(NC(C)(C)C)C(=O)c1cccc(Cl)c1` (centres undefined) [BUPROPION], the half-inhibitory concentration (IC50) result in data set [1], in data set [2], in data set [3], in data set [4], in data set [5] and in data set [6] was “Not Active” throughout. In addition, the IC50 entry in data set [7] and in data set [8] (sf9) was “Not Active” in each case. In addition, the inhibitory constant (Ki) result in data set [3], in data set [4], in data set [6] and in data set [7] was “Not Active” each time.

Turning to `Cc1cc(C2CCCCC2)n(O)c(=O)c1` [CICLOPIROX], the IC50 result in data set [1], in data set [2], in data set [3], in data set [4], in data set [5] and in data set [6] was “Not Active” in each case. For the same molecule, the IC50 result in data set [7] and in data set [8] (sf9) was “Not Active” in each case. The Ki entry in data set [3], in data set [4], in data set [6] and in data set [7] was “Not Active” each time.

As for `CCCCc1nc(Cl)c(CO)n1Cc1ccc(-c2ccccc2-c2nnn[nH]2)cc1` [LOSARTAN], the half-maximal inhibitory concentration (IC50) entry in data set [1], in data set [2], in data set [3], in data set [4], in data set [5] and in data set [6] was “Not Active” each time. For the same molecule, the IC50 result in data set [7] and in data set [8] (sf9) was “Not Active” in each case. Further, the inhibition constant (Ki) result in data set [3], in data set [4], in data set [6] and in data set [7] was “Not Active” in each case.

Consider `COc1cc2nc(N3CCN(C(=O)C4COc5ccccc5O4)CC3)nc(N)c2cc1OC` (centres undefined) [DOXAZOSIN], for which the IC50 entry in data set [1], in data set [2], in data set [3], in data set [4], in data set [5] and in data set [6] was “Not Active” each time. For the same molecule, the IC50 result in data set [7] and in data set [8] (sf9) was “Not Active” in each case. Moreover, the Ki result in data set [3], in data set [4], in data set [6] and in data set [7] was “Not Active” throughout.

On to `CCCCN1CCCC[C@H]1C(=O)Nc1c(C)cccc1C` [LEVOBUPIVACAINE], for which the half-inhibitory concentration (IC50) result in data set [1], in data set [2], in data set [3], in data set [4], in data set [5] and in data set [6] was “Not Active” in each case. Moreover, the IC50 result in data set [7] and in data set [8] (sf9) was “Not Active” in each case. Also, the inhibition constant (Ki) result in data set [3], in data set [4], in data set [6] and in data set [7] was “Not Active” throughout.

On to `Cc1onc(O)c1CC(N)C(=O)O` (racemic) [(R,S)-AMPA], for which the IC50 result in data set [1], in data set [2], in data set [3], in data set [4], in data set [5] and in data set [6] was “Not Active” each time. Besides, the IC50 entry in data set [7] and in data set [8] (sf9) was “Not Active” throughout. Further, the Ki result in data set [3], in data set [4], in data set [6] and in data set [7] was “Not Active” throughout.

As for `CC1CC(OC(=O)C(O)c2ccccc2)CC(C)(C)C1` (centres undefined) [CYCLANDELATE], the IC50 entry in data set [1], in data set [2], in data set [3], in data set [4], in data set [5] and in data set [6] was “Not Active” in each case. Also, the IC50 entry in data set [7] and in data set [8] (sf9) was “Not Active” throughout. For the same molecule, the Ki result in data set [3], in data set [4], in data set [6] and in data set [7] was “Not Active” in each case.
